Consider seven compounds from patent US20230348418A1, “ISOINDOLINONE COMPOUNDS” (Monte Rosa Therapeutics, Inc., priority 2021, published 2023).

Structures are written as SMILES. Read-outs that look alike come from different tables or passages of the source.

One experiment addresses T1, IKZF1 (Ikaros) (Homo sapiens, UniProt Q13422).
T1 construct: endogenous in cells; host or cells: MM1S (ATCC CRL-2974)
The experiment in a line: Western blot selectivity assay in MM1S cells: IKZF1. Also noted: key: A represents a no degradation observed at 30 μM; B represents trace degradation at 30 μM (below 20%); C represents weak degradation at 30 μM (below 50%); D represents degradation at 30 μM (>90%); E represents degradation at 3 μM (>90%); F represents degradation at 0.3 μM (>90%). It counts as cell-based. The following applies: MM1S cells, 0.3, 3 and 30 μM, 6 hours. The procedure: (§1) MM1S cells were purchased from ATCC (cat. Number CRL-2974), sub-cultured in 90% RPMI 1640 with 10% FBS, supplemented with 1×P/S and incubated at 37° C., 5% CO2. Compounds were stored as 10 mM DMSO stock. For the assay, MM1S cells (3 million cells/well) were plated in 6-well plates and incubated over night. Cells were treated with respective compounds using a serial dilution: 0.3 μM, 3 μM and 30 μM as well as a vehicle only (DMSO) control for 6 hours. Media with suspension cells was subsequently transferred to 15 mL conical tubes, wells rinsed twice with ice-cold PBS and merged with cell suspension in respective 15 mL conical tube. Cells were spinned down, supernatant aspirated, pellets resuspended in ice-cold PBS and transferred to microtubes. Cells were spinned down, supernatant aspirated and pellets resuspended in 120 μL RIPA lysis buffer supplemented with protease and phosphatase inhibitors. Cell lysates were incubated on ice for 20 minutes followed by centrifugation at >20,000×g for 5 min. Supernatants were transferred to fresh microtubes and stored at −80° C. Total protein concentration was determined using a BCA assay with a BSA standard curve and concentration of all samples was adjusted to 1 mg/mL. 25 μL 4×LDS sample buffer supplemented with 100 mM DTT was added to 75 μL sample. Samples were centrifuged (8,000×g, 1 min) and incubated at 95° C. for 5 min followed by another centrifugation step (8,000×g, 1 min). 20 μL of each sample was loaded on a 4-12% gel alongside a protein molecular weight marker. Gels were run in the presence of MOPS buffer at 80 Volts for 30 min, followed by 120 Volts for 1.5 h and proteins subsequently transferred onto nitrocellulose membranes at 20 Volts for 7 min using an iBlot2 Gel Transfer Device. Membranes were then cut horizontally into two pieces, covering 80-50 kDa and 50-25 kDa. Blocking the membranes was performed by gently shaking in 5% (w/v) skim milk in TSB-T for 1 hr at room temperature. All primary antibodies were used at a 1/1000 in 5% (w/v) BSA dissolved in TBST and incubated with membranes over night at 4° C. Anti-IKZF1 (Ikaros; D6N9Y; 14859S), anti-IKZF3 (Aiolos; D1C1E; 15103S) antibodies were purchased from Cell Signalling Technology, anti-ZFP91 antibody from Bethyl laboratories, anti-GSPT1 from Sigma Aldrich (HPA052488) and anti CK1alpha from AbCam (ab206652). After three washes with 1×TBST for 5 min, HRP-coupled secondary antibodies diluted in 5% (w/v) BSA/TBST (Goat Anti-Rb IgG, dil. 1/10,000; Goat Anti-Mouse IgG, dil. 1/5000) were added for 1 hr at room temperature. After three washes with 1×TBST (5 minutes each), membranes were incubated with ECL reagent for 1 min at room temperature. Chemiluminescence signals were then detected using a LAS-4000 system with default settings and signals quantified using Image Studio Lite software (version 5.2). Membrane parts previously incubated with antibody against CK1alpha were stripped off antibodies by incubating with stripping buffer for 30 minutes followed by three washed with TBST (5 min each), blocking with 5% (w/v) skim milk for 1 hr, and incubation with primary antibody against GAPDH overnight at 4° C. Subsequent washes, incubation with secondary antibody and signal acquisition were performed as described above.
Background: Immunoblotting shows a protein as a band on a membrane.

The target of the next experiment is T2, ZFP91 (Homo sapiens, UniProt Q96JP5).
T2 construct: endogenous in cells; host or cells: MM1S (ATCC CRL-2974)
T2 sequence (Q96SW2 whole entry partner): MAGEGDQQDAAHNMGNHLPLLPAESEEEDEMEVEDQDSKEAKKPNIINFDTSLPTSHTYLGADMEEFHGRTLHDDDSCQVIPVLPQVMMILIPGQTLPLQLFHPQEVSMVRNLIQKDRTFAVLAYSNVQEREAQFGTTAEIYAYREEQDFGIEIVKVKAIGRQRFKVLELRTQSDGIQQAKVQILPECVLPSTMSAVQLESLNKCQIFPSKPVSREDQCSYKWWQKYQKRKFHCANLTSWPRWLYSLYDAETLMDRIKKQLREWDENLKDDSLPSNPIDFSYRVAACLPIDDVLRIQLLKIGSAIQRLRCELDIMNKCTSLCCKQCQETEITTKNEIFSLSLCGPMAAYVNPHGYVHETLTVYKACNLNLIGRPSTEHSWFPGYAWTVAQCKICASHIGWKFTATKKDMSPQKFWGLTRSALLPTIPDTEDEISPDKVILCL
T2 sequence (Q16531 2-1140 partner limits assumed): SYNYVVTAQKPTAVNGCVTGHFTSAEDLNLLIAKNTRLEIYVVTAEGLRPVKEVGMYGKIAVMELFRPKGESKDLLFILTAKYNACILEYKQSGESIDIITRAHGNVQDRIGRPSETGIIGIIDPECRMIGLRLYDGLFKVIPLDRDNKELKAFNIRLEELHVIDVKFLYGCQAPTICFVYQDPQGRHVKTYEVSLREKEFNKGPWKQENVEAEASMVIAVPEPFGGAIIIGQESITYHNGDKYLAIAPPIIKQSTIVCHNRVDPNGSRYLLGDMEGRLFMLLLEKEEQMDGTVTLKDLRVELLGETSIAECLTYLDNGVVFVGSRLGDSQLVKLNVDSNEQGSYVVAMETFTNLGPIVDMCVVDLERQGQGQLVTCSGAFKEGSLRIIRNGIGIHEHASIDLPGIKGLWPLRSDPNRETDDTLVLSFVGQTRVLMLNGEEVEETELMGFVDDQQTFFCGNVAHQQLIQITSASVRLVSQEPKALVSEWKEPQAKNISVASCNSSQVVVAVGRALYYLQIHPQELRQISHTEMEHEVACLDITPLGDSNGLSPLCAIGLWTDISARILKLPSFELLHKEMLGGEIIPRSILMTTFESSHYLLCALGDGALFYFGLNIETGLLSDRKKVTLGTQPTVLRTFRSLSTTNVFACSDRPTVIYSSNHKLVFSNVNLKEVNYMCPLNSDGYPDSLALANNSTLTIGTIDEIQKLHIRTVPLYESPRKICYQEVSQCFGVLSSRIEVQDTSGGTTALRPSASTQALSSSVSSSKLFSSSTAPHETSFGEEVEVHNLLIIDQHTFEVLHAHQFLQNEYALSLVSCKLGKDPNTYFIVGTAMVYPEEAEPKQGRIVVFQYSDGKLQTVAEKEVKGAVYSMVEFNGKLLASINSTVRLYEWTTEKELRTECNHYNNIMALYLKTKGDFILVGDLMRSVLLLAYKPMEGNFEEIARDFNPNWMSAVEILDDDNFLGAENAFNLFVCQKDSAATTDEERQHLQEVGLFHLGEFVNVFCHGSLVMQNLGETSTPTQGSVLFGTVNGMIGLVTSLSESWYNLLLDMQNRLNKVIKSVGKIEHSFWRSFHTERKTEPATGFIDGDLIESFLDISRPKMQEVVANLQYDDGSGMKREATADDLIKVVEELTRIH
T2 sequence (Q96JP5 2-570 limits assumed): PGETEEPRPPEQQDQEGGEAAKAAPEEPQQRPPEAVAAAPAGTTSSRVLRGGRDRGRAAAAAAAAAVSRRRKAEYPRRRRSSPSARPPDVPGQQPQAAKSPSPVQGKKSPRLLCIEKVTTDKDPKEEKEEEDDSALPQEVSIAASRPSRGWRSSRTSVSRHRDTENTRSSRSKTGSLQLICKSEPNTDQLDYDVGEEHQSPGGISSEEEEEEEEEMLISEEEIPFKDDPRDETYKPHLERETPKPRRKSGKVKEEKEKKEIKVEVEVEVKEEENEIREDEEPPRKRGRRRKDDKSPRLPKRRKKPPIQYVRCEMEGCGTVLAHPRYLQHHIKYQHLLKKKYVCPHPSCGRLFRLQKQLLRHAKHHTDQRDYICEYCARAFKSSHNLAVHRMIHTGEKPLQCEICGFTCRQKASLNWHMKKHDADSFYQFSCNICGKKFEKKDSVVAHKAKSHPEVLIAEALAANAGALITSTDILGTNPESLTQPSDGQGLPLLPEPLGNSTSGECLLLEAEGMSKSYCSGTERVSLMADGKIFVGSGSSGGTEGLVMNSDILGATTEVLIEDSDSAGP
The experiment in a line: Western blot selectivity assay in MM1S cells: ZFP91. In kind it is cell-based. Also noted: key: A represents a no degradation observed at 30 μM; B represents trace degradation at 30 μM (below 20%); C represents weak degradation at 30 μM (below 50%); D represents degradation at 30 μM (>90%); E represents degradation at 3 μM (>90%); F represents degradation at 0.3 μM (>90%). The following applies: MM1S cells, 0.3, 3 and 30 μM, 6 hours. As for the experimental part: (§2) MM1S cells were purchased from ATCC (cat. Number CRL-2974), sub-cultured in 90% RPMI 1640 with 10% FBS, supplemented with 1×P/S and incubated at 37° C., 5% CO2. Compounds were stored as 10 mM DMSO stock. For the assay, MM1S cells (3 million cells/well) were plated in 6-well plates and incubated over night. Cells were treated with respective compounds using a serial dilution: 0.3 μM, 3 μM and 30 μM as well as a vehicle only (DMSO) control for 6 hours. Media with suspension cells was subsequently transferred to 15 mL conical tubes, wells rinsed twice with ice-cold PBS and merged with cell suspension in respective 15 mL conical tube. Cells were spinned down, supernatant aspirated, pellets resuspended in ice-cold PBS and transferred to microtubes. Cells were spinned down, supernatant aspirated and pellets resuspended in 120 μL RIPA lysis buffer supplemented with protease and phosphatase inhibitors. Cell lysates were incubated on ice for 20 minutes followed by centrifugation at >20,000×g for 5 min. Supernatants were transferred to fresh microtubes and stored at −80° C. Total protein concentration was determined using a BCA assay with a BSA standard curve and concentration of all samples was adjusted to 1 mg/mL. […] Chemiluminescence signals were then detected using a LAS-4000 system with default settings and signals quantified using Image Studio Lite software (version 5.2). […]

For experiment [1], the target named is T3, GSPT1 (Homo sapiens, UniProt P15170+Q96SW2). The experiment in a line: Western blot selectivity assay in MM1S cells: GSPT1. It counts as cell-based. Also noted: endogenous in cells; host or cells: MM1S (ATCC CRL-2974). The following applies: MM1S cells, 0.3, 3 and 30 μM, 6 hours. As for the experimental part: as §1
T3 sequence (P15170 whole entry): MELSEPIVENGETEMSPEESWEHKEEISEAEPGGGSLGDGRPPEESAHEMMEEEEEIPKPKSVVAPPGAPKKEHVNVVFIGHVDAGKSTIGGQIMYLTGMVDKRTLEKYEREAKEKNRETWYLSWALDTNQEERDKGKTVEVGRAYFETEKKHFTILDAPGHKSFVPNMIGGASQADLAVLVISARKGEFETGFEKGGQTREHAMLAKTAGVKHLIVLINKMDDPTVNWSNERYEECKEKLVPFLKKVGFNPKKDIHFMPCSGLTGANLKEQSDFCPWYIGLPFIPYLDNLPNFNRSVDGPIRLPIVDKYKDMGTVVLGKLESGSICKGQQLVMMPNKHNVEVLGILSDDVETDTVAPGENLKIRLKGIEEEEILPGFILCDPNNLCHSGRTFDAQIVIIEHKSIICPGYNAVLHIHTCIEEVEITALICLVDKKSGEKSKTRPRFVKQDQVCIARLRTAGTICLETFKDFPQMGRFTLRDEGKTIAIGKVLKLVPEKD
T3 sequence (Q96SW2 whole entry): as the sequence (Q96SW2 whole entry partner) above
T3 sequence (Q16531 2-1140 partner limits assumed): as the sequence (Q16531 2-1140 partner limits assumed) above
Experiment [2] has as its target T4, Full length wild-type cereblon CRBN (Homo sapiens, UniProt Q96SW2).
T4 construct: Full length wild-type cereblon CRBN (80.0 nM, 10 μL) was incubated in assay buffer
The experiment in a line: Fluorescence polarization (FP) assay, cereblon binding. An outline of the steps: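 Full-length wild-type human CRBN (80.0 nM) was preincubated with compound for 30 min at room temperature in 20 mM HEPES pH 8.0, 150 NaCl, 0.5 mM TCEP and 0.05% Tween 20. A Cy5-type thalidomide-linked fluorescent probe was then added. The FP signal was normalized to the DMSO control to derive IC50.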
(In general: Polarisation of emitted light reports the rotation of a fluorescent probe.)

For the next experiment, the target named is T5, IKZF3 (Aiolos) (Homo sapiens, UniProt Q9UKT9).
T5 construct: endogenous in cells; host or cells: MM1S (ATCC CRL-2974)
T5 sequence (Q96SW2 whole entry partner): as the sequence (Q96SW2 whole entry partner) above
T5 sequence (Q16531 2-1140 partner limits assumed): as the sequence (Q16531 2-1140 partner limits assumed) above
T5 sequence (Q9UKT9 whole entry): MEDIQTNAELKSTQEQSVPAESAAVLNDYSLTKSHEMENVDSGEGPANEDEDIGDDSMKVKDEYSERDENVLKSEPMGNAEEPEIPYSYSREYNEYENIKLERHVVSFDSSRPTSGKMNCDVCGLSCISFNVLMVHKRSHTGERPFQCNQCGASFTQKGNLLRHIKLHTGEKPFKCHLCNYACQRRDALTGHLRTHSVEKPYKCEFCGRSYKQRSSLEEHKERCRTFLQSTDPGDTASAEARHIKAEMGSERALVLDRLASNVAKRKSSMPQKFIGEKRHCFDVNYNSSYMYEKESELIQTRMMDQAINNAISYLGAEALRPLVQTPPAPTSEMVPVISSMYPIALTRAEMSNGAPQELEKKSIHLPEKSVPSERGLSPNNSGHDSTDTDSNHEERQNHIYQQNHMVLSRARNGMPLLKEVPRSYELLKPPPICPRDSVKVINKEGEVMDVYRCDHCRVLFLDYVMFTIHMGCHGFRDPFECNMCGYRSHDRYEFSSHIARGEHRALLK
In words: Western blot selectivity assay in MM1S cells: IKZF3. It counts as cell-based. Also noted: key: A represents a no degradation observed at 30 μM; B represents trace degradation at 30 μM (below 20%); C represents weak degradation at 30 μM (below 50%); D represents degradation at 30 μM (>90%); E represents degradation at 3 μM (>90%); F represents degradation at 0.3 μM (>90%). The following applies: MM1S cells, 0.3, 3 and 30 μM, 6 hours. The procedure: as §1, with “After three washes with 1×TBST (5 minutes each), membranes were incubated with ECL reagent for 1 min at room temperature.” left out, “Membrane parts previously incubated with antibody against CK1alpha were stripped off antibodies by incubating with stripping buffer for 30 minutes followed by three washed with TBST (5 min each), blocking with 5% (w/v) skim milk for 1 hr, and incubation with primary antibody against GAPDH overnight at 4° C. Subsequent washes, incubation with secondary antibody and signal acquisition were performed as described above.” left out

The target of a further experiment is T6, CK1alpha (Homo sapiens, UniProt P48729).
T6 construct: endogenous in cells; host or cells: MM1S (ATCC CRL-2974)
T6 sequence (Q96SW2 whole entry partner): as the sequence (Q96SW2 whole entry partner) above
T6 sequence (Q16531 2-1140 partner limits assumed): as the sequence (Q16531 2-1140 partner limits assumed) above
T6 sequence (P48729 whole entry): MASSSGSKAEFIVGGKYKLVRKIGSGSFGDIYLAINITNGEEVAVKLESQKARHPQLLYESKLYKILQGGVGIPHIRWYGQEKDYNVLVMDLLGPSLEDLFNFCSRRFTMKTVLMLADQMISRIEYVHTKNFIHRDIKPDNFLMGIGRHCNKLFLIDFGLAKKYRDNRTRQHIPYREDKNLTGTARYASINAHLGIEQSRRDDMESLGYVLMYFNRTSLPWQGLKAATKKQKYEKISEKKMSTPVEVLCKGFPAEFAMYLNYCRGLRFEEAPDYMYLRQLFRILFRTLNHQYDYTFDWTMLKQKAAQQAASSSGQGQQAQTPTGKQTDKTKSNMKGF
In words: Western blot selectivity assay in MM1S cells: CK1alpha. In kind it is cell-based. Also noted: key: A represents a no degradation observed at 30 μM; B represents trace degradation at 30 μM (below 20%); C represents weak degradation at 30 μM (below 50%); D represents degradation at 30 μM (>90%); E represents degradation at 3 μM (>90%); F represents degradation at 0.3 μM (>90%). The settings on record: MM1S cells, 0.3, 3 and 30 μM, 6 hours. As for the experimental part:
as §2

Experiment [3] deals with T3, GSPT1. The experiment in a line: Immunofluorescence assay for GSPT1 degradation in CAL-51 cells (Example 4). In kind it is cell-based. Also noted: host or cells: CAL-51. The settings on record: compounds with code A; read-out: DC50 value. The procedure: The representative compounds were tested in an immunofluorescence assay for their activity to bind to degrade GSPT1. […] Compounds were stored at 10 mM DMSO stocks. […] Cells were subsequently rinsed with PBS and fixed in 10% Formalin solution (50 μl, Sigma HT5011)) for 20 mins at room temperature. […] Following three further PBS washes, […] blocking buffer (1% BSA, Sigma A4503, in PBS) was added for 45 min for signal-to-noise reduction.
Primary antibody (human GSPT1, Sigma HPA052488) was diluted in blocking buffer (dil.1/300, 35 μl/well) and incubated with the cells overnight at 4° C. […] After three final PBS washes, samples were conserved in 100 μl PBS in the dark, until measurement. Image acquisition was performed on the Operetta High-Content Imager (Perkin-Elmer). […] For the determination of GSPT1 DC50 values, a custom algorithm implemented in the PerkinElmer image analysis software Harmony-Acapella® was developed. After user-defined setting of adjustment parameters, the analysis was run identically without human intervention for all image fields. DAPI staining of the nuclei was used to determine the location of cells using standard nuclei detection modules. Segmentation artifacts were removed by threshold-based filters for area, roundness and intensity. The outline of the cells was determined analogously from the sum of the normalized, smoothed DAPI and Actin channel, starting from each nucleus.
GSPT1 degradation (DC50) was calculated after normalization to controls and data import in CDD vault Database, using non-linear regression.

[4] abbreviates: bounds stated in the text lists b2059-b2061, read-out: IC50 value.
[5] abbreviates: cereblon binding, class code, read-out: rFP IC50.

T1 sequence (Q96SW2 whole entry partner): as the sequence (Q96SW2 whole entry partner) above
T1 sequence (Q16531 2-1140 partner limits assumed): as the sequence (Q16531 2-1140 partner limits assumed) above
T1 sequence (Q13422 whole entry): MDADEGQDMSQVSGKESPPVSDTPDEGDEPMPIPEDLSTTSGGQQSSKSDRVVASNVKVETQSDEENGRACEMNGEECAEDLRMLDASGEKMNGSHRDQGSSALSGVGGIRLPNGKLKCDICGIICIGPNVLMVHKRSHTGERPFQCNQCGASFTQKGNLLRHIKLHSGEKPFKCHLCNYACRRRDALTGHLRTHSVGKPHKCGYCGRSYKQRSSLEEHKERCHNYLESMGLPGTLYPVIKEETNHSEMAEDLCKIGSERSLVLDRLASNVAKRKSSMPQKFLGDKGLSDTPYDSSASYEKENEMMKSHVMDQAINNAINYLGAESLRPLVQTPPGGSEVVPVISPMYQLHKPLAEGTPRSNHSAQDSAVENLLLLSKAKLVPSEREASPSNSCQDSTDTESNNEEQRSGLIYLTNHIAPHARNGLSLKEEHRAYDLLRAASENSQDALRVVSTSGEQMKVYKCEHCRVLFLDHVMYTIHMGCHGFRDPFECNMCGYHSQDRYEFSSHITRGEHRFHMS
T4 sequence (Q96SW2 whole entry): as the sequence (Q96SW2 whole entry partner) above

The IC50 is the concentration that inhibits the measured activity by half. With `COc1cc(C)c(Cl)cc1NC(=O)OCc1ccc2c(c1)C(=O)N(C1CCC(=O)NC1=O)C2` (stereo not shown) [Compound 1], the IKZF1 degradation result at IKZF1 (Ikaros) is reported as “A”. For the same compound, at ZFP91, the ZFP91 degradation entry was “A”. For the same compound, at GSPT1 [1], the GSPT1 degradation entry was “F (F represents degradation at 0.3 μM (>90%))”. Also, the IC50 is less than 1700 nM in experiment [2] (setting [4]) and 1100 to 1700 nM in experiment [2] (setting [5]).

In the case of `O=C1CCC(N2Cc3ccc(COC(=O)Nc4cccc(OC(F)(F)F)c4)cc3C2=O)C(=O)N1` (stereo not shown) [Compound 3], the IKZF3 degradation result at IKZF3 (Aiolos) is reported as “A”. In addition, the IKZF1 degradation result at IKZF1 (Ikaros) is listed as “A”. Also, the GSPT1 degradation result at GSPT1 [1] is on record as “F (F represents degradation at 0.3 μM (>90%))”. The results for the IC50 in experiment [2] (setting [4]) and in experiment [2] (setting [5]) were less than 1700 nM and 1100 to 1700 nM, respectively.

On to `Cc1ncc(NC(=O)OCc2ccc3c(c2)C(=O)N(C2CCC(=O)NC2=O)C3)cc1Cl` (stereo not shown) [Compound 6], for which the CK1alpha degradation result at CK1alpha is on record as “A”. The IKZF1 degradation entry at IKZF1 (Ikaros) is reported as “A”. In addition, the GSPT1 degradation result on GSPT1 [1] is “F (F represents degradation at 0.3 μM (>90%))”. Besides, the IC50 in experiment [2] (setting [4]) was less than 1700 nM; in experiment [2] (setting [5]) it was 500 to 1100 nM.

Usually DC50 stands for the concentration at which degradation of the target reaches its halfway point. On to `O=C1CCC(N2Cc3ccc(COC(=O)Nc4cc(Cl)cc(OC(F)(F)F)c4)cc3C2=O)C(=O)N1` (stereo not shown) [Compound 11], for which, at GSPT1 [3], the DC50 is no more than 30 nM.

Take `O=C1CCC(N2Cc3ccc(COC(=O)Nc4ccc(N5CCCCC5)nc4)cc3C2=O)C(=O)N1` (stereo not shown) [Compound 15]: the IKZF1 degradation result at IKZF1 (Ikaros) was “A”. In addition, the GSPT1 degradation entry on GSPT1 [1] is “F (F represents degradation at 0.3 μM (>90%))”. The IC50 in experiment [2] (setting [4]) was less than 1700 nM; in experiment [2] (setting [5]), 500 to 1100 nM.

In the case of `O=C1CCC(N2Cc3ccc(COC(=O)Nc4ccc(-c5ccccc5)nc4)cc3C2=O)C(=O)N1` (stereo not shown) [Compound 42], at IKZF3 (Aiolos), the IKZF3 degradation result was “A”. Moreover, the IKZF1 degradation entry on IKZF1 (Ikaros) was “A”. Besides, the GSPT1 degradation result on GSPT1 [1] is recorded as “F (F represents degradation at 0.3 μM (>90%))”.

`CC(C)(C)c1ccc(NC(=O)OCc2ccc3c(c2)C(=O)N(C2CCC(=O)NC2=O)C3)cn1` (stereo not shown) [Compound 43]: the IKZF1 degradation entry at IKZF1 (Ikaros) is recorded as “A”. For the same compound, the GSPT1 degradation entry at GSPT1 [1] is given as “F (F represents degradation at 0.3 μM (>90%))”.
